± gives the standard deviation of the averaged measurements.
Legend:
[1] = test system: Homo sapiens (human subject panel, olfactory perception); experiment: perceived odor familiarity rating (rating 0-100); higher = more familiar
Description: (§1)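 Human olfactory psychophysics. 55 healthy subjects (after excluding 6 low performers) sniffed 1 mL of each odorant diluted in paraffin oil (vials, two dilutions per molecule, 20 molecules presented twice). Each subject rated intensity, pleasantness and familiarity on a 0-100 slider, starting at 50 and required to move. Ratings were given only when the subject reported detecting a smell; per-subject ratings are averaged over subjects.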

[2] = test system: Homo sapiens (human subject panel, olfactory perception); experiment: perceived odor intensity rating (rating 0-100); higher = stronger perceived smell
Description: as §1

[3] = test system: Homo sapiens (human subject panel, olfactory perception); experiment: perceived odor pleasantness rating (rating 0-100); higher = more pleasant
Description: as §1

[4] = odor dilution in paraffin oil: 1/100,000
[5] = odor dilution in paraffin oil: 1/10,000,000
[6] = odor dilution in paraffin oil: 1/1,000
[7] = odor dilution in paraffin oil: 1/10

SMILES	perceived odor familiarity rating [1, 4]	perceived odor familiarity rating [1, 5]	perceived odor intensity rating [2, 4]	perceived odor intensity rating [2, 5]	perceived odor pleasantness rating [3, 4]	perceived odor pleasantness rating [3, 5]	perceived odor familiarity rating [1, 6]	perceived odor intensity rating [2, 6]	perceived odor pleasantness rating [3, 6]	perceived odor familiarity rating [1, 7]	perceived odor intensity rating [2, 7]	perceived odor pleasantness rating [3, 7]
COc1cc(C)ccc1O [2-Methoxy-4-methylphenol (replicate)]	51.8 ± 31	38.9 ± 26	63 ± 28	33 ± 31	39.5 ± 24	45.5 ± 20	–	–	–	–	–	–
COc1cc(C)ccc1O [2-Methoxy-4-methylphenol]	53.6 ± 30	37.5 ± 32	60.2 ± 27	27 ± 29	39.6 ± 22	43.9 ± 23	–	–	–	–	–	–
COc1ccccc1OC(C)=O [2-Methoxyphenyl acetate]	45.5 ± 30	–	56 ± 30	–	45.5 ± 27	–	46.3 ± 30	74.2 ± 20	37.4 ± 27	–	–	–
COc1cnccn1 [2-Methoxypyrazine]	52.6 ± 30	–	41.6 ± 30	–	54.8 ± 26	–	51.9 ± 34	68.3 ± 29	37.3 ± 30	–	–	–
COc1ccccc1S [2-Methoxythiophenol]	40.6 ± 34	37.6 ± 30	88.2 ± 13	25.8 ± 22	15.7 ± 23	52.7 ± 24	–	–	–	–	–	–
CCC(C)CO (stereo not given) [2-Methyl-1-butanol (replicate)]	37.1 ± 31	–	36.4 ± 31	–	44.4 ± 23	–	47.1 ± 32	78.8 ± 18	28 ± 26	–	–	–
CCC(C)CO (stereo not given) [2-Methyl-1-butanol]	43.3 ± 31	–	32.2 ± 26	–	48.6 ± 21	–	43.7 ± 29	56.2 ± 33	38.4 ± 24	–	–	–
CSc1ccoc1C [2-Methyl-3-methylthiofuran]	48.1 ± 28	33 ± 24	66.8 ± 24	31.4 ± 28	24.5 ± 19	39.4 ± 20	–	–	–	–	–	–
CCCC1CCOC(C)S1 (stereo not given) [2-Methyl-4-propyl-1,3-oxathiane]	53.6 ± 33	27.9 ± 27	68.7 ± 25	22.7 ± 30	38.8 ± 30	51 ± 26	–	–	–	–	–	–
CC1CCCCC1=O (stereo not given) [2-Methylcyclohexanone]	33.4 ± 30	–	12.6 ± 18	–	50.9 ± 22	–	49.8 ± 32	74.6 ± 25	31.6 ± 25	–	–	–
Cc1ccco1 [2-Methylfuran]	36.9 ± 27	38.5 ± 24	25.1 ± 29	28.9 ± 27	52.6 ± 21	39.4 ± 22	–	–	–	–	–	–
CCCC(C)C(=O)O (stereo not given) [2-Methylpentanoic acid]	37.4 ± 31	38 ± 29	31.7 ± 30	35.6 ± 33	50 ± 25	37.9 ± 24	–	–	–	–	–	–
CCCCCCCC(C)=O [2-Nonanone]	39.1 ± 31	–	29.4 ± 30	–	49.6 ± 23	–	52.3 ± 32	58 ± 25	60.3 ± 23	–	–	–
CC(C)C(=O)OCCOc1ccccc1 [2-Phenoxyethyl isobutyrate]	–	–	–	–	–	–	30.3 ± 31	27.5 ± 29	55.1 ± 26	44 ± 30	58.7 ± 26	43.8 ± 22
CC=C(C=O)c1ccccc1 [2-Phenyl-2-butenal]	30.9 ± 30	34.5 ± 24	19.8 ± 24	20.1 ± 29	36.6 ± 25	57.5 ± 21	–	–	–	–	–	–
S=C=NCCc1ccccc1 [2-Phenylethyl isothiocyanate]	41.3 ± 28	–	38.2 ± 30	–	37.7 ± 26	–	47 ± 31	75.5 ± 20	21.3 ± 21	–	–	–
CCCCCCCCCC(C)=O [2-Undecanone]	–	–	–	–	–	–	39.6 ± 30	31.9 ± 28	50.4 ± 22	49.5 ± 32	79.4 ± 22	43.3 ± 32
CC(=O)c1ccccn1 [2-acetyl pyridine]	67.8 ± 29	–	74.3 ± 22	–	53.6 ± 27	–	66.9 ± 28	79.2 ± 20	49.7 ± 28	–	–	–

SMILES	perceived odor familiarity rating [1, 4]	perceived odor familiarity rating [1, 5]	perceived odor intensity rating [2, 4]	perceived odor intensity rating [2, 5]	perceived odor pleasantness rating [3, 4]	perceived odor pleasantness rating [3, 5]	perceived odor familiarity rating [1, 6]	perceived odor intensity rating [2, 6]	perceived odor pleasantness rating [3, 6]	perceived odor familiarity rating [1, 7]	perceived odor intensity rating [2, 7]	perceived odor pleasantness rating [3, 7]
CCC(C)=O [2-butanone]	27.4 ± 31	–	19.4 ± 26	–	49.6 ± 29	–	34.9 ± 32	33 ± 33	43.3 ± 28	–	–	–
CCCCCCCCC(C)=O [2-decanone]	30.3 ± 23	–	24.6 ± 26	–	51.2 ± 26	–	44 ± 29	44.8 ± 30	49.5 ± 25	–	–	–
CCc1cnccn1 [2-ethyl pyrazine]	34.8 ± 27	–	31.4 ± 25	–	47 ± 21	–	55.8 ± 34	80 ± 19	37.2 ± 30	–	–	–
CCCCC(CC)CO (stereo not given) [2-ethyl-1-hexanol]	43.6 ± 31	–	51.2 ± 34	–	25.9 ± 23	–	42.1 ± 30	79.7 ± 19	19.4 ± 22	–	–	–
CCCCC(CC)COC(C)=O (stereo not given) [2-ethylhexyl acetate]	32.7 ± 29	–	24.6 ± 31	–	51.3 ± 22	–	38.6 ± 29	44.4 ± 32	42 ± 22	–	–	–
CCc1ccccc1O [2-ethylphenol]	51.6 ± 33	–	67.7 ± 27	–	33.2 ± 24	–	64.4 ± 28	83.3 ± 18	29.2 ± 27	–	–	–
CCCCCC(C)=O [2-heptanone]	23.9 ± 22	–	25.4 ± 27	–	51.9 ± 26	–	52.7 ± 29	71.1 ± 22	53.8 ± 25	–	–	–
CCCCC(C)O (stereo not given) [2-hexanol]	38.1 ± 29	–	47.8 ± 32	–	42.1 ± 25	–	58.2 ± 28	71.9 ± 24	42.3 ± 24	–	–	–
CCCCC(C)=O [2-hexanone]	31.4 ± 27	–	25.5 ± 31	–	48.6 ± 23	–	57.6 ± 32	71.4 ± 25	42.2 ± 24	–	–	–
CCC/C=C/C=O [2-hexenal]	43.1 ± 31	–	39.7 ± 29	–	53.1 ± 26	–	41.1 ± 33	67.4 ± 28	30.9 ± 26	–	–	–
COc1nccnc1CC(C)C [2-isobutyl-3-methoxypyrazine]	57.7 ± 30	–	71.7 ± 27	–	47.9 ± 26	–	50.1 ± 31	80.6 ± 19	31.2 ± 25	–	–	–
CC(C)CO [2-methyl-1-propanol]	35.4 ± 28	–	23.4 ± 23	–	43.5 ± 21	–	38.5 ± 34	42.5 ± 33	37.4 ± 23	–	–	–
CCCCCCC(C)=O [2-octanone]	36.6 ± 25	–	20 ± 26	–	52.2 ± 16	–	51.9 ± 26	66.8 ± 26	52.5 ± 25	–	–	–
CCCC(C)O (stereo not given) [2-pentanol]	38.9 ± 31	–	25.7 ± 23	–	42.6 ± 21	–	41.8 ± 30	50.2 ± 34	35.5 ± 26	–	–	–
OCCc1ccccc1 [2-phenylethanol]	61.8 ± 29	–	59.6 ± 29	–	63.1 ± 24	–	61.9 ± 30	70 ± 26	52.8 ± 30	–	–	–
CCC(C)C1CCCCC1=O (stereo not given) [2-sec-Butylcyclohexanone]	–	–	–	–	–	–	44.6 ± 32	56.8 ± 28	51 ± 24	58.9 ± 32	81.9 ± 17	49.3 ± 29
COc1ccc(C(C)=O)cc1OC [3,4-Dimethoxyacetophenone]	–	–	–	–	–	–	35.9 ± 26	26.5 ± 30	51.4 ± 20	48.6 ± 30	61.7 ± 26	38.9 ± 26

From the supplement of paper PMC4977894
